The values that follow come from US8129163B2, “Gene suitable for alcohol dehydrogenase, vector and transformant” (Kaneka Corporation, priority 2006, dated 2012).

Read-outs that look alike come from different tables or passages of the source.

Assay [1] has as its system enzyme derived from Candida parapsilosis IFO 1396 strain. Particulars: cited from earlier work.
The test system of assay [2] is RMA. Format: biochemical, Candida maltosa IFO 1977 strain. Particulars: for Relative activity (%) of RMA after treatment with inhibitor: inhibitor 1 mM, 30° C. for 30 minutes, untreated RMA = 100%; for inhibition of RMA (in words): treatment at 30° C. for 30 minutes, concentrations of Table 6. As to the method: In 1 mM concentration solution or mixture of various compounds, a polypeptide is treated at 30° C. for 30 minutes. […] Concentrations of agents at the time of treatment are illustrated in Table 6.

Assay [3] relates to RMA. The class given is biochemical, Candida maltosa IFO 1977 strain.

For `O[C@H](CS)[C@H](O)CS` (racemic) [Dithiothreitol], in assay [1], the “inhibition of enzyme activity (in words)” value was “inhibited”. In the assay on RMA [2], the “Relative activity (%) of RMA after treatment with inhibitor” value (from here on “Relative activity (%) … with inhibitor”) stood at 92.2% and the “inhibition of RMA (in words)” value is on record as “did not”.

In the case of `O=C(O)CN(CCN(CC(=O)O)CC(=O)O)CC(=O)O` [Ethylenediaminetetraacetic acid], the “inhibition of enzyme activity (in words)” value in assay [1] is reported as “not inhibited”. In the assay with RMA [3], the “Relative activity (%) … with inhibitor” value amounted to 12.9% and the “inhibition of RMA (in words)” value is on record as “inhibited”.

For `O=C(O)CI` [Iodoacetic acid], in the assay with RMA [3], the “Relative activity (%) … with inhibitor” value amounted to 78.9%.

Turning to `OCCS` [β-Mercaptoethanol], the “inhibition of enzyme activity (in words)” value in assay [1] is “inhibited”. Also, in the assay with RMA [2], the “Relative activity (%) … with inhibitor” value was 95.4% and the “inhibition of RMA (in words)” value is recorded as “did not”.

Consider `O=C(O)c1cc[c]([Hg][Cl])cc1` [p-Chloromercuribenzoate], for which the “Relative activity (%) … with inhibitor” value in the assay on RMA [3] (inhibitor 0.05 mM, 30° C. for 30 minutes, untreated RMA = 100%) stood at 96.3%.

Regarding `C/C=C/C(=O)O` [Crotonic acid], in the assay on RMA [3] (inhibitor 50 mM, 30° C. for 30 minutes, untreated RMA = 100%), the “Relative activity (%) … with inhibitor” value was 10.4%.

For `NO` [NH2OH], the “Relative activity (%) … with inhibitor” value in the assay on RMA [3] (inhibitor 0.01 mM, 30° C. for 30 minutes, untreated RMA = 100%) was found to be 96.1%.
